Experimental data as given in patent publication US20040248898A1, “Remedies for arteriosclerosis” (priority 2001, published 2004).
Where two headings read alike, the source gives them in different places.

Key:
[1] = test system: mouse peritoneal macrophages; test: Uptake of LDL into mouse peritoneal macrophages induced by group X sPLA2 (Oil Red O stain); assay type: cell-based; details: agent 10 μmol/L; 0.2 mg/ml LDL, 50 nmol/L group X sPLA2, 48 hours
Method: C57BL/6J mice (male, 8 weeks) were injected peritoneally with 2 ml of a 4% thioglycollate solution, and, 4 days later, the cells from the peritoneal fluids were harvested. The cells were plated on a chamber slide, and incubated for 2 hours in the presence of the serum-free medium (BIO […]: X-VIVO 15). Then, non-adherent cells were removed by the washing procedure to prepare peritoneal macrophages. The cells were added with 0.2 mg/ml LDL (Sigma) and 50 nmol/L group X PLA2, and incubated in the serum-free medium for 48 hours. Uptake of LDL into macrophages were confirmed by immobilizing the cells with 4% formaldehyde for 20 minutes, and then staining the lipids with an Oil Red O stain solution.

human group X sPLA2 [2] = target: T1, human group X sPLA2 (Homo sapiens, UniProt O15496); test: Chromogenic assay for inhibitory activity, group X sPLA2 inhibition tests; assay type: biochemical; parameters: made in house; host or cells: CHO cells, stably transfected (pSVL vector); culture supernatant used
T1 sequence (O15496 43-165): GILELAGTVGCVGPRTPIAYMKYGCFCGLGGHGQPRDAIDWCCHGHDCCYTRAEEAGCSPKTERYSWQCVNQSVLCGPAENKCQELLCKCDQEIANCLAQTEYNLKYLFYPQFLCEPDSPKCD
Description: (§1) A. Preparation of Cells Expressing Human Group V or X sPLA2 and Preparation of the Culture Supernatant Thereof
(§2) cDNA sequence encoding human group V or X sPLA2 (Chen et al., J. Biol. Chem, 1994, 269, 2365-2368; and Cupillard et al., J. Biol. Chem, 1997, 272, 15745-15752) was inserted in forward direction downstream the promoter of an expression vector for mammal cells, pSVL SV40 Late Promoter Expression Vector (Amersham Pharmacia Biotech). The expression vector was transfected into CHO host cells using a Lipofect AMINE regent (Gibco BRL) according to the instructions of the manufacturer to provide CHO cells stably expressing human group V or X sPLA2. The cells were incubated in a-MEM medium containing 10% fetal calf serum for 3 days, and the culture supernatant was used to determine the activity of the enzymes.
(§3) B. Assay for Inhibitory Activity
(§4) The following chromogenic assay is used to identify and evaluate inhibitors of group V or X sPLA2. The assay has been adapted for high volume screening using 96 well microtiter plates. A general description of this assay is found in the article, “Analysis of Human Synovial Fluid Phospholipase A2 on Short Chain Phosphatidylcholine-Mixed Micelles: Development of a Spectrophotometric Assay Suitable for a Microtiterplate Reader”, by Laure. J. Reynolds, Lori L. Hughes and Edward A Dennis, Analytical Biochemistry, 204, pp 190-197, 1992.
(§5) A test compound (or a solvent blank) was added according to the predetermined arrangement of the plate, and diheptanoyl thio PC (1 mM) was reacted with human group V or X sPLA2 in the presence of Triton X-100 (0.3 mM), 5,5′-dithiobis-(2-nitrobenzoic acid) (125 μM) in a Tris buffer (25mM, pH7.3), CaCl2 (10 mM), KCl (100 mM), bovine serum albumin. Absorbance at 405 nm is read to estimate the inhibitory activity.
(§6) The reaction with human group V sPLA2 was performed in 40 μl/well at 40° C. for 45 minutes, and the reaction with human group X sPLA2 was performed in 15 μl/well at 40° C. for 30 minutes.

human group V sPLA2 [3] = target: T2, human group V sPLA2 (Homo sapiens, UniProt P39877); test: Chromogenic assay for inhibitory activity, group V sPLA2 inhibition tests; assay type: biochemical
T2 construct: made in house; host or cells: CHO cells, stably transfected (pSVL vector); culture supernatant used
T2 sequence (P39877 21-138): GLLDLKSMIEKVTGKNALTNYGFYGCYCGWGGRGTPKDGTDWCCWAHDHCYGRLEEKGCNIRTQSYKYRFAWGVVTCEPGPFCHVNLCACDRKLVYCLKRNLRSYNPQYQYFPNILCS
Description: as §1, §2, §3, §4, §5, §6

human group X sPLA2 [4] = target: T1, human group X sPLA2; test: Negative charge of isolated human lipoproteins (agarose gel electrophoresis) after group X sPLA2; assay type: biochemical; details: agent 10 μmol/L; LDL and HDL, 50 nmol/L sPLA2
Method: LDL and HDL were isolated from human plasma by ultracentrifugation (Havel, et al., J. Clin. Invest. 34, 1345-1353 (1955)). Human group IB, IIA and X sPLA2s (50 nmol/L) and CuSO4 (20 μmol/L) were reacted with LDL and HDL (1 mg/ml) at 37° C. for 3, 6, and 24 hours in a solution containing 12.5 mmol/L Tris-HCL buffer (pH 8.0), 125 mg/L bovine serum albumin, and 1 mmol/L calcium chloride. Then, a 1 μg sample of LDL and a 2 μg sample of HDL were electrophoresed on agarose gel (Helena Laboratories, TITAN GEL Lipoprotein; 90V, 25 minutes). After the electrophoresis, the gel was dried at 50 to 60° C. for about 1 hour, stained with 6 ml of a stain solution (Helena Laboratories, Fat Red 7B agarose solution) for about 3 minutes, and then decolorized with 25 ml of a decolorizing solution (70% methanol). In the experiment for determining the activity of a sPLA2 inhibitor (indoxam), a COX inhibitor (indomethacin) or a 5-LOX inhibitor (AA-861), those agents were added to the reaction giving a final concentration of 10 μmol/L, virtually simultaneously with the addition of sPLA2.

human group V sPLA2 [5] = target: T2, human group V sPLA2; test: Fatty acid (linoleic acid) release from isolated human lipoproteins induced by group V sPLA2; assay type: biochemical; details: agent 10 μmol/L; from LDL (FIG. 8)
Method: LDL and HDL were isolated from human plasma by ultracentrifugation (Havel, et al., J. Clin. Invest. 34, 1345-1353 (1955)). […] Biol. Chem. 235, 2595-2599 (1960)). The fatty acids were labeled with 9-anthryldiazomethane by the known method ([…], et al., J. Biol. Chem. 274, 34203-34211 (1999)), and then were determined by detecting fluorescence of the labeled products (fatty acids) eluted from high performance liquid chromatography (HPLC) on reverse-phase column (LichroCART 125-4 Superspher 100 RP-18 column, Merck).

human group X sPLA2 [6] = target: T1, human group X sPLA2; test: Fatty acid release from isolated human lipoproteins induced by group X sPLA2; assay type: biochemical; details: agent 10 μmol/L, added with sPLA2; arachidonic acid from LDL (FIG. 2)
Method: LDL and HDL were isolated from human plasma by ultracentrifugation (Havel, et al., J. Clin. Invest. 34, 1345-1353 (1955)). Human group IB, IIA and X sPLA2s (0.5 nmol/L to 500 nmol/L) were reacted with LDL and HDL (0.35-1 mg/ml) at 37° C. in a solution containing 12.5 mmol/L Tris-HCL buffer (pH 8.0), 125 mg/L bovine serum albumin, and 1 mmol/L calcium chloride. The fatty acids released from the lipoproteins were extracted according to the method of Dole (Dole, et al., J. Biol. Chem. 235, 2595-2599 (1960)), and were labeled with 9-anthryldiazomethane by the known method (Hanasaki, et al., J. Biol. Chem. 274, 34203-34211 (1999)). Then, the released fatty acids were determined by detecting fluorescence of the labeled products (fatty acids) eluted from high performance liquid chromatography (HPLC) on reverse-phase column (LichroCART 125-4 Superspher 100 RP-18 columnmol/Merck). In order to examine does-dependent release of fatty acids induced by each sPLA2, the lipoprotein was reacted with 0.5, 5, 50, and 500 nmol/L group X sPLA2, and 50 and 500 nmol/L group IB and IIA sPLA2 for 60 minutes. Further, in order to examine time-dependent fatty acid release induced by sPLA2, each 50 nmol/L sPLA2 was used, and the change in the release with time course was traced during the period time of 4 hours after the sPLA2 addition. In the experiment for determining the inhibitory activity of a sPLA2 inhibitor (indoxam; Yokota, et al., Biochim. Biophys. Acta 1438, 213-222 (1999)), a cyclooxygenase (COX) inhibitor (indomethacin) or a 5-lipoxygenase (5-LOX) inhibitor (AA-861; 2,3,5-trimethyl-6-(12-hydroxy-5,10-dodecadiynyl)-1,4-benzoquinone (Yoshimoto, et al., Biochem. Biophys. Acta. 713, 470-473 (1982)), those agents were added to the reaction giving a final concentration of 10 μmol/L, virtually simultaneously with the addition of sPLA2.

human group V sPLA2 [7] = target: T2, human group V sPLA2; test: Degeneration (negative charge, agarose gel electrophoresis) of isolated human lipoproteins by group V sPLA2; assay type: biochemical; details: agent 10 μmol/L; LDL and HDL, 50 nmol/L sPLA2
Method: LDL and HDL were isolated from human plasma by ultracentrifugation (Havel, et al., J. Clin. Invest. 34, 1345-1353 (1955)). Human group IIA and V sPLA2s (50 nmol/L) were reacted with LDL and HDL (1 mg/ml) at 37° C. for 3, 6, and 24 hours in a solution containing 12.5 mmol/L Tris-HCL buffer (pH 8.0), 125 mg/L bovine serum albumin, and 1 mmol/L calcium chloride, and then 1 μg of the LDL and 2 μg of the HDL were spotted on an agarose gel (Helena Laboratories, TITAN GEL Lipoprotein), followed by being electrophoresed at 90V for 25 minutes. After the electrophoresis, the gels were dried at 50 to 60° C. for about one hour, stained with 6 ml of a stain solution (Helena Laboratories, Fat Red 7B agarose solution) for about three minutes, and then decolorized with 25 ml of a decolorizing solution (70% methanol).

[8] = diheptanoyl thio PC 1 mM, 40° C., 30 minutes, absorbance at 405 nm, read-out: IC50 group X sPLA2 inhibition
[9] = diheptanoyl thio PC 1 mM, 40° C., 45 minutes, absorbance at 405 nm, read-out: IC50 group V sPLA2 inhibition

| IC50 (human group X sPLA2 [2]; [8]) [nM] | IC50 (human group V sPLA2 [3]; [9]) [nM] | Compound | further results |
| --- | --- | --- | --- |
|  |  | CC(Cc1ccc(O)c(O)c1)C(C)Cc1ccc(O)c(O)c1 (stereo not shown) [NDGA] | Effect on group X sPLA2-induced uptake of LDL into the cells [1]: affected neither |
| 9 |  | CCc1c(C(=O)C(N)=O)c2c(OCC(=O)O)nc(C)cn2c1Cc1ccccc1C1CCCC1 [Compound 14] |  |
|  | 5 | CCc1ccc(-c2ccccc2Cc2c(CC)c(C(=O)C(N)=O)c3c(OCC(=O)O)nc(C)cn23)s1 [Compound 21] |  |
| 17 |  | CCCc1c(C(=O)C(N)=O)c2c(OCC(=O)O)nc(C)cn2c1Cc1ccc(F)cc1 [Compound 15] |  |
|  |  | COc1ccc2c(c1)c(CC(=O)O)c(C)n2C(=O)c1ccc(Cl)cc1 [indomethacin] | Effect on lipoprotein degeneration (increase in negative charge) induced by group X sPLA2 (human group X sPLA2 [4]): affected neither; Effect on linoleic acid release induced by group V sPLA2 (human group V sPLA2 [5]): not affected; Effect on fatty acid release induced by group X sPLA2 (human group X sPLA2 [6]): affected neither; Effect on group X sPLA2-induced uptake of LDL into the cells [1]: affected neither; Effect on lipoprotein degeneration induced by group V sPLA2 (human group V sPLA2 [7]): not affected |
|  | 8 | NC(=O)c1cccc2c1c1c(OCC(=O)O)cccc1n2Cc1ccccc1 [Compound 23] |  |
|  |  | CC1=C(C)C(=O)C(CCCCC#CCCCC#CCO)=C(C)C1=O [AA-861, 2,3,5-trimethyl-6-(12-hydroxy-5,10-dodecadiynyl)-1,4-benzoquinone] | Effect on lipoprotein degeneration (increase in negative charge) induced by group X sPLA2 (human group X sPLA2 [4]): affected neither; Effect on fatty acid release induced by group X sPLA2 (human group X sPLA2 [6]): affected neither |
|  | 2 | NC(=O)c1cccc2c1c1c(OCC(=O)O)cc(-c3ccco3)cc1n2Cc1ccccc1 [Compound 11] |  |
|  | 5 | CCc1c(C(=O)C(N)=O)c2c(OCC(=O)O)nc(-c3ccccc3)cn2c1Cc1ccccc1 [Compound 3] |  |
|  |  | CCc1c(C(=O)C(N)=O)c2c(OCC(=O)O)cccc2n1Cc1ccccc1-c1ccccc1 [Compound 19] | IC50 (human group X sPLA2 [2]): 26 nM; IC50 (human group V sPLA2 [3]): 6 nM |
|  | 11 | CCc1c(C(=O)C(N)=O)c2c(OCC(=O)O)nc(C)cn2c1Cc1ccccc1CC1CCCCC1 [Compound 20] |  |
| 13 | 1 | NC(=O)c1cccc2c1c1c(OCC(=O)O)cccc1n2Cc1cccc(Oc2ccccc2)c1 [Compound 9] |  |
| 19 |  | CCc1c(CC(N)=O)c2c(OCC(=O)O)nc(C)cn2c1Cc1ccc(F)cc1 [Compound 13] |  |
| 3 | 3 | NC(=O)c1cccc2c1c1c(OCC(=O)O)cccc1n2CC1CCCCC1 [Compound 8] |  |
| 16 |  | CCc1c(C(=O)C(N)=O)c2c(OCC(=O)O)nc(C)cn2c1Cc1ccc(-c2ccccc2)cc1 [Compound 12] |  |
|  | 12 | CCc1c(C(=O)C(N)=O)c2c(OCC(=O)O)nc(C)cn2c1Cc1cccc(-c2ccccc2)c1 [Compound 1] |  |
|  | 13 | CCc1c(C(=O)C(N)=O)c2c(OCC(=O)O)nc(C)cn2c1Cc1ccccc1Cc1ccccc1 [Compound 2] |  |
| 12 | 7 | NC(=O)c1cccc2c1c1c(OCC(=O)O)ccc(F)c1n2Cc1ccccc1 [Compound 10] |  |
|  | 2 | NC(=O)C1=CCCc2c1c1c(OCC(=O)O)cccn1c2Cc1ccccc1 [Compound 7] |  |
|  | 13 | CCc1c(C(=O)C(N)=O)c2c(OCC(=O)O)nc(C)cn2c1Cc1ccccc1-c1ccc(C)s1 [Compound 22] |  |
|  |  | CCc1c(C(=O)C(N)=O)c2c(OCC(=O)O)cccn2c1Cc1ccccc1-c1ccccc1 [indoxam] | Effect on lipoprotein degeneration (increase in negative charge) induced by group X sPLA2 (human group X sPLA2 [4]): inhibited; Effect on linoleic acid release induced by group V sPLA2 (human group V sPLA2 [5]): inhibited; Effect on fatty acid release induced by group X sPLA2 (human group X sPLA2 [6]): inhibited; Effect on group X sPLA2-induced uptake of LDL into the cells [1]: inhibited; Effect on lipoprotein degeneration induced by group V sPLA2 (human group V sPLA2 [7]): inhibited |
